Experimental data: patent EP2921553B1, “Enzymatic reactor system” (Leibniz-Institut für Polymerforschung Dresden e.V., priority 2014, dated 2015)

T1: S-Acetyl-coenzyme A synthetase (EC 6.2.1.1) from baker's yeast, free enzyme (Saccharomyces cerevisiae, UniProt Q01574)
T1 construct: purchased Sigma-Aldrich (Germany)
T1 sequence (Q01574 1-713): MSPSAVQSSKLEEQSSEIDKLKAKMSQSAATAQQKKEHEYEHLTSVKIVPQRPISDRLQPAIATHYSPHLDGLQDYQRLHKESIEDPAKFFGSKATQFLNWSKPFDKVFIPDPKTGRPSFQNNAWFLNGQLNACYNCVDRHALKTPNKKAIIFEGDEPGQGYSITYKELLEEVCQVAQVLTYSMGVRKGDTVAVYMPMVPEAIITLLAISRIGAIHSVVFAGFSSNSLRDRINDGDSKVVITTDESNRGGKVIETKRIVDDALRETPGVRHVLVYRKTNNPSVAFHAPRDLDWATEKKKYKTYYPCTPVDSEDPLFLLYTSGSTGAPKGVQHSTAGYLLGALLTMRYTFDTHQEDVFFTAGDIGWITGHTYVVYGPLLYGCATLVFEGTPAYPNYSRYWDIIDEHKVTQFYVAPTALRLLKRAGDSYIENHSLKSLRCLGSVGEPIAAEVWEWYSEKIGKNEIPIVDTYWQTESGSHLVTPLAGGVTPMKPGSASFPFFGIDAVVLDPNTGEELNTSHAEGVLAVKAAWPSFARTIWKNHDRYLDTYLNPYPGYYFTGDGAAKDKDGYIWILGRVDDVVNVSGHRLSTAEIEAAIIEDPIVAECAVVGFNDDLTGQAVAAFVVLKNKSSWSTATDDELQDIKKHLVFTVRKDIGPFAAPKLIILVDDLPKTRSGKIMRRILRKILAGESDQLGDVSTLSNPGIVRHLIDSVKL

T2: S-Acetyl-coenzyme A synthetase (EC 6.2.1.1) from baker's yeast, Immobilized enzyme (PNIPAm-AEMA) (Saccharomyces cerevisiae, UniProt Q01574)
T2 construct: purchased Sigma-Aldrich (Germany)
T2 sequence (Q01574 1-713): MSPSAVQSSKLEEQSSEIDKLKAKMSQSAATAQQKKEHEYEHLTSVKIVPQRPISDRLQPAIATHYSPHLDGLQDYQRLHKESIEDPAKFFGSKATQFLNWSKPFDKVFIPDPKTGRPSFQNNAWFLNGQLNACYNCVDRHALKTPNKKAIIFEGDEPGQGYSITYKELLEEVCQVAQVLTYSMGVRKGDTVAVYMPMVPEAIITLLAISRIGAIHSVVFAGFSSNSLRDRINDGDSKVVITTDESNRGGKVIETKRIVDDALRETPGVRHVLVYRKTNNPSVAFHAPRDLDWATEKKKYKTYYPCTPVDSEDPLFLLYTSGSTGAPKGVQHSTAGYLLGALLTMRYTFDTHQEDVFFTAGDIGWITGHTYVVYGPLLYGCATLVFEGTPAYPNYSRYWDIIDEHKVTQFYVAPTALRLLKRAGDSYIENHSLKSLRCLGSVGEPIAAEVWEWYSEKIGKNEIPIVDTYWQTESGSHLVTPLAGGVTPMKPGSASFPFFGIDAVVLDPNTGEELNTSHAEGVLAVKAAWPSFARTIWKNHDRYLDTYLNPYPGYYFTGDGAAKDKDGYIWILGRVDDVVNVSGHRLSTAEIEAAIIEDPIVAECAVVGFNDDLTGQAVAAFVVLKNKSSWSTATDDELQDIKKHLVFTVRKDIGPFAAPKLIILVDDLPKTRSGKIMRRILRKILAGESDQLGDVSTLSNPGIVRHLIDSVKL

T3: S-Acetyl-coenzyme A synthetase (EC 6.2.1.1) from baker's yeast, Immobilized enzyme (PEI-PNIPAm) (Saccharomyces cerevisiae, UniProt Q01574)
T3 construct: purchased Sigma-Aldrich (Germany)
T3 sequence (Q01574 1-713): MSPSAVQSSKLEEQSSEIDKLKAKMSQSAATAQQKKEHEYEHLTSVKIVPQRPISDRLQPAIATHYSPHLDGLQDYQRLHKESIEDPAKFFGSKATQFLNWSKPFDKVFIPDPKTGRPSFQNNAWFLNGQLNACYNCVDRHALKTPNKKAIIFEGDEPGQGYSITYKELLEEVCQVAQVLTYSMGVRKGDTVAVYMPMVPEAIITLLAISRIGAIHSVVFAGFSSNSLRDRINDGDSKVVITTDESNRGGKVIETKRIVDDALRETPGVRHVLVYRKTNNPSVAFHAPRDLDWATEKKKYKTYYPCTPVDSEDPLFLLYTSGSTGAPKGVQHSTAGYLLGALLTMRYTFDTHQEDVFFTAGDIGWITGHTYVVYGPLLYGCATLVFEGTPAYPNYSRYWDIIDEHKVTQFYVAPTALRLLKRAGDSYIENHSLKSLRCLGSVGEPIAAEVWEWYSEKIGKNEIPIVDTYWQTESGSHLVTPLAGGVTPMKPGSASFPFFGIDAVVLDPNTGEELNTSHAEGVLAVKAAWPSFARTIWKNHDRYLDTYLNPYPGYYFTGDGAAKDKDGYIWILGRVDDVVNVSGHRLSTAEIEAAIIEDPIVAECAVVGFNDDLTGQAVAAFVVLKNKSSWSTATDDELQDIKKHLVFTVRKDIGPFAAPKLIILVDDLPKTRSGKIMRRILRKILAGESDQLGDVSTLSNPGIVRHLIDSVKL


Key:
[1] = target: T1, S-Acetyl-coenzyme A synthetase (EC 6.2.1.1) from baker's yeast, free enzyme; assay: Reaction kinetics of free Acetyl CoA-synthetase for acetate (pyrophosphate-molybdate assay, Table 1); type: biochemical; conditions: acetate substrate at 37°C, ATP 1 mM, CoA 0.5 mM, Lineweaver-Burk plot
Procedure: (§1) The activity of free acetyl CoA synthetase and their bioconjugates with PNIPAm-AEMA or microgel was studied in borate buffer (0.1 M, pH 8), in presence of 20 mM potassium acetate, 4 mM MgCl2, 4 mM glutathione, 1 mM ATP, and 500 µM coenzyme A. The reaction was terminated by addition of acidic molybdate reagent. The pyrophosphate-molybdate complex formed was further reduced by addition of mercaptoethanol and Eikonogen reagent. The obtained coloured product was quantified by measuring the absorption at 590 nm and pyrophosphate concentration was determined (ε = 2.7 x 10^4 M^-1 cm^-1).
(§2) One unit of enzyme activity was defined as the amount of enzyme required to form 1 µmol pyrophosphate per min at pH 8 and 37°C. Bradford micro assay with a sensitivity of 1-10 µg/mL was used to determine protein concentration using bovine serum albumin as the standard protein. […]
(§3) Assuming Michaelis-Menten kinetics for Acetyl CoA-synthetase by the following equations: V = (Vmax [S])/(Km + [S]) [formula] where V is the rate of the reaction, [S] is the concentration of the substrate, Km is the apparent constant, and Vmax is the maximum of reaction velocity. The values for Km and Vmax, were estimated with the help of a Lineweaver-Burk plot for the Michaelis-Menten equation expressed as follows: (1)/(V) = (Km)/(Vmax)[…](1)/([S]) + (1)/(Vmax) [formula] […]

[2] = target: T2, S-Acetyl-coenzyme A synthetase (EC 6.2.1.1) from baker's yeast, Immobilized enzyme (PNIPAm-AEMA); assay: Reaction kinetics of PNIPAm-AEMA-immobilized Acetyl CoA-synthetase for acetate (pyrophosphate-molybdate assay, Table 1); type: biochemical; conditions: acetate substrate at 37°C; ATP 1 mM, CoA 0.5 mM; enzyme covalently immobilized on PNIPAm-AEMA microgel
Procedure: Acetyl CoA-synthetase was covalently immobilized to PNIPAm-AEMA core-shell microgel using carbodiimide chemistry in 0.1 M Borate buffer at pH 8. Inorganic phosphate present in commercial enzyme preparation (interferes with molybdate assay) was removed by filtration using 30 kDa centrifuge filter tubes (Millipore).
as §1, with “cm^-1). […]” for “cm^-1).”
as §3

[3] = target: T1, S-Acetyl-coenzyme A synthetase (EC 6.2.1.1) from baker's yeast, free enzyme; assay: Reaction kinetics of free Acetyl CoA-synthetase for acetate (citrate synthase/malate dehydrogenase coupled assay, Table 2); type: biochemical; conditions: acetate substrate at 37°C, ATP 1 mM, CoA 0.5 mM, Lineweaver-Burk plot
Procedure: The activity of free and immobilized Acs was determined spectrophotometrically by following acetyl CoA synthesis at 340 nm wavelength by coupling to Citrate synthase (CS) and malate dehydrogenase (MDH) assay.
The assay medium composition for enzyme activity consists of 20 mM potassium acetate, 4 mM MgCl, 4 mM glutathione, 1 mM ATP, 500 µM co-enzyme A, 1 mM NAD and 4 mM malate in 100mM Tris Cl buffer pH 8. The acetyl CoA synthesized was correlated to the concentration of NADH formed in a coupled assay using […]. One unit of enzyme activity was defined as the amount of enzyme which is required to form 1 µmol of NADH per min at pH 8 and 37°C.
The reaction kinetics of free and immobilized enzymes was studied at various concentrations of acetate (5 mM - 0.3 mM) as a substrate and keeping concentrations of ATP and CoA constant at 1 mM and 0.5 mM, respectively. […]
as §3

[4] = target: T3, S-Acetyl-coenzyme A synthetase (EC 6.2.1.1) from baker's yeast, Immobilized enzyme (PEI-PNIPAm); assay: Reaction kinetics of PEI-PNIPAm-immobilized Acetyl CoA-synthetase for acetate (citrate synthase/malate dehydrogenase coupled assay, Table 2); type: biochemical; conditions: acetate substrate at 37°C; ATP 1 mM, CoA 0.5 mM; enzyme adsorbed on PEI-PNIPAm microgel
Procedure: The immobilization of Acetyl CoA-synthetase on PEI-PNIPAm microgel was achieved via adsorption in 0.1 M Tris-CI buffer at pH 8 for 6 h at 4°C. The conjugate was obtained by centrifugation at 12,000 rpm for 15 min at 25°C and subsequently washed with the same buffer to remove non adsorbed enzymes. Using Micro BCA (for protein concentrations lower than 20 µg/mL) assay kits, the amounts of adsorbed enzyme loaded to the microgel was determined by subtracting the residual protein content in the supernatant from the initial protein content. The enzyme and conjugate were stored in 0.1 M Borate buffer containing 1 mM glutathione and 1 mM magnesium chloride pH 8 for further use.
The activity of free and immobilized Acs was determined spectrophotometrically by following acetyl CoA synthesis at 340 nm wavelength by coupling to Citrate synthase (CS) and malate dehydrogenase (MDH) assay. […]
as §3

[5] = substrate: CC(=O)O; assay: Reaction kinetics of free Acetyl CoA-synthetase for acetate (pyrophosphate-molybdate assay, Table 1); type: biochemical, Saccharomyces cerevisiae; conditions: other: acetate substrate at 37°C, acetate 5 mM - 0.3 mM, ATP 1 mM, CoA 0.5 mM, Lineweaver-Burk plot, free enzyme, pH 8.0
Procedure: as §1, §2, §3

Vmax [1] | Vmax [2] | Vmax [3] | Vmax [4] | Molecule | Km [5] [µM]
8.5x10^-3 ± 0.4x10^-3 U/min | 5.6 x10^-3± 0.1x10^-3 U/min | 16x10^-3 ± 1 x10^-3 U/min | 44 x10^-3± 2 x10^-3 U/min | CC(=O)O [acetate] | –
– | – | – | – | S-Acetyl-coenzyme A synthetase (EC 6.2.1.1) from baker's yeast, free enzyme (Saccharomyces cerevisiae S288C) (protein, purchased Sigma-Aldrich (Germany)) MSPSAVQSSKLEEQSSEIDKLKAKMSQSAATAQQKKEHEYEHLTSVKIVPQRPISDRLQPAIATHYSPHLDGLQDYQRLHKESIEDPAKFFGSKATQFLNWSKPFDKVFIPDPKTGRPSFQNNAWFLNGQLNACYNCVDRHALKTPNKKAIIFEGDEPGQGYSITYKELLEEVCQVAQVLTYSMGVRKGDTVAVYMPMVPEAIITLLAISRIGAIHSVVFAGFSSNSLRDRINDGDSKVVITTDESNRGGKVIETKRIVDDALRETPGVRHVLVYRKTNNPSVAFHAPRDLDWATEKKKYKTYYPCTPVDSEDPLFLLYTSGSTGAPKGVQHSTAGYLLGALLTMRYTFDTHQEDVFFTAGDIGWITGHTYVVYGPLLYGCATLVFEGTPAYPNYSRYWDIIDEHKVTQFYVAPTALRLLKRAGDSYIENHSLKSLRCLGSVGEPIAAEVWEWYSEKIGKNEIPIVDTYWQTESGSHLVTPLAGGVTPMKPGSASFPFFGIDAVVLDPNTGEELNTSHAEGVLAVKAAWPSFARTIWKNHDRYLDTYLNPYPGYYFTGDGAAKDKDGYIWILGRVDDVVNVSGHRLSTAEIEAAIIEDPIVAECAVVGFNDDLTGQAVAAFVVLKNKSSWSTATDDELQDIKKHLVFTVRKDIGPFAAPKLIILVDDLPKTRSGKIMRRILRKILAGESDQLGDVSTLSNPGIVRHLIDSVKL | 170 ± 30
